This is an account of results in patent US10662555B2, “Polyimide fiber and method for producing polyimide fiber” (I.S.T Corporation, priority 2016, dated 2020).

The nature of data set [1]: octanol-water partition coefficient (Log P) at 25° C., shake flask method. The settings on record: for logP: octanol/water; for Log P: octanol-water partition coefficient at 25° C.
For data set [2] the following is noted: conjugate acid in water at 25° C.; cited from earlier work.

For orientation: logP means the decadic logarithm of the partition coefficient of the neutral form, usually between octanol and water. In turn, `Cc1nccn1C` [1,2-dimethyl-1,3-diazole] had a logP in data set [1] of 0.11. The pKa is the negative logarithm of the acid dissociation constant. Regarding `Cn1ccnc1` [1-methyl-1,3-diazole], in data set [2], the pKa is given as 6.95. This compound also yielded a logP in data set [1] of -0.19. Usually Log P stands for a log measure of how a compound divides between an organic and an aqueous phase. For `Cc1ncc[nH]1` [2-methyl-1,3-diazole], in data set [1], the “Log P” value worked out at 0.24. The same measure, in the same setting: the result for `C1CNCCN1` [Piperazine, piperazine] reads −1.5. For `CCCCN(CCCC)CCCC` [Tributylamine, tributylamine], in data set [1], the “Log P” value is over 2.79 and the logP was over 2.79.

Compound `CCN(CC)CC` [Triethylamine, triethylamine] gave a logP in data set [1] of 1.45.

In the case of `CCCN(CCC)CCC` [Tripropylamine, tripropylamine], in data set [1], the “Log P” value worked out at 2.79. In turn, `CC(O)CN(CC(C)O)CC(C)O` (centres unmarked) [triisopropanolamine] yielded a logP in the data set “physchem” of -0.015. Consider `Cc1cccnc1` [β-picoline], for which, in data set [1], the log partition coefficient (Log P) stood at 1.2.
